The text below walks through data of patent US20080207655A1, “Diaminopyrimidines as P2X3 and P2X2/3 modulators” (Roche Palo Alto LLC, priority 2007, published 2008).

The structures appear in SMILES notation.

One series has as its target T1, rat P2X3 receptor (Rattus norvegicus, UniProt P49654).
T1 construct: expressed in transfected cells; host or cells: CHO-K1
T1 sequence (P49654 1-397): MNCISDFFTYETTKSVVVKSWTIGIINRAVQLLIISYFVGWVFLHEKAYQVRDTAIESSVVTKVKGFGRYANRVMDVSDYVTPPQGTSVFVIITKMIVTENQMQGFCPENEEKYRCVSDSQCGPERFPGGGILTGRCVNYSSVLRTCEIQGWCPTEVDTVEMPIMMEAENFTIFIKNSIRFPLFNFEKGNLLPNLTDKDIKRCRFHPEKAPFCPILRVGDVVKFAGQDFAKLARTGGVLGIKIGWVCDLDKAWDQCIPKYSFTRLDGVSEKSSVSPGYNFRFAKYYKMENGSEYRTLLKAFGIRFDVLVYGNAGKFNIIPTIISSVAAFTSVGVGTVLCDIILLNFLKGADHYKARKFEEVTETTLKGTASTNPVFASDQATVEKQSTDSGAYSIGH
The series is described as follows: P2X3 FLIPR (Fluorometric Imaging Plate Reader) assay, CHO-K1 cells, α,β-meATP-evoked calcium fluorescence. Conditions: agonist α,β-meATP 1 μM. It counts as cell-based. As for the experimental part: (§1) CHO-K1 cells were transfected with cloned rat P2X3 or human P2X2/3 receptor subunits and passaged in flasks. 18-24 hours before the FLIPR experiment, cells were released from their flasks, centrifuged, and resuspended in nutrient medium at 2.5×10^5 cells/ml. The cells were aliquoted into black-walled 96-well plates at a density of 50,000 cells/well and incubated overnight in 5% CO2 at 37° C. On the day of the experiment, cells were washed in FLIPR buffer (calcium- and magnesium-free Hank's balanced salt solution, 10 mM HEPES, 2 mM CaCl2, 2.5 mM probenecid; FB). Each well received 100 μl FB and 100 μl of the fluorescent dye Fluo-3 AM [2 μM final conc.]. […]
(§2) Test compounds (dissolved in DMSO at 10 mM and serially diluted with FB) or vehicle were added to each well (25 μl of a 4× solution) and allowed to equilibrate for 20 minutes at room temperature. […] Fluorescence was measured for an additional 2 minutes at 1 second intervals after agonist addition. A final addition of ionomycin (5 μM, final concentration) was made to each well of the FLIPR test plate to establish cell viability and maximum fluorescence of dye-bound cytosolic calcium. Peak fluorescence in response to the addition of α,β-meATP (in the absence and presence of test compounds) was measured and inhibition curves generated using nonlinear regression. […]

The next series deals with T2, human P2X2/3 receptor (Homo sapiens, UniProt P56373+Q9UBL9).
T2 construct: expressed in transfected cells; host or cells: CHO-K1
T2 sequence (Q9UBL9 1-471): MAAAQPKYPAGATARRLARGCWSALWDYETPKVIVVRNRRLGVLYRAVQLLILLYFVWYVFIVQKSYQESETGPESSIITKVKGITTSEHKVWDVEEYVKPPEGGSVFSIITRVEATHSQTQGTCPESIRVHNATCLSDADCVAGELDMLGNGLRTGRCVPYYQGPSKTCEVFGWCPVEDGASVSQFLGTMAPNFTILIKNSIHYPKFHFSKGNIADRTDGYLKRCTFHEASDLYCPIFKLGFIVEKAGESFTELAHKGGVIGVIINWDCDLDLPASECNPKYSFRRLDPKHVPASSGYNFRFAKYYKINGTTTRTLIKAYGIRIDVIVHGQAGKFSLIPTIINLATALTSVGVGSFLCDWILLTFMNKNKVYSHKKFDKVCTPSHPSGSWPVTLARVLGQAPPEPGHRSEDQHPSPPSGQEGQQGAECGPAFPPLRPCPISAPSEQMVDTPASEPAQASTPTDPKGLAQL
T2 sequence (P56373 1-397): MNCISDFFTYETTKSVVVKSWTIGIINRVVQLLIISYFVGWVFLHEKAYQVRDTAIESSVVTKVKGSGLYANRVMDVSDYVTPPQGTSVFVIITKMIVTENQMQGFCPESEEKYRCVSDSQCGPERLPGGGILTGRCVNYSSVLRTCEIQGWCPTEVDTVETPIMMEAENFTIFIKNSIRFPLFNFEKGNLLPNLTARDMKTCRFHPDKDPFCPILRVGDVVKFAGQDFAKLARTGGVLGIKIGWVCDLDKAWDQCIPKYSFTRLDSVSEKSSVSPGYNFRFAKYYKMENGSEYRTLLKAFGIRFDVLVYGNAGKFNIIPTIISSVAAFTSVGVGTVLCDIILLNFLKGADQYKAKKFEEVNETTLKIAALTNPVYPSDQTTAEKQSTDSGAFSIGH
The series is described as follows: P2X2/3 FLIPR (Fluorometric Imaging Plate Reader) assay, CHO-K1 cells, α,β-meATP-evoked calcium fluorescence. Format: cell-based. Conditions: agonist α,β-meATP 5 μM. On the procedure: as §1, §2

Consider `COc1cc(C(C)C)c(Oc2cnc(N)nc2N)cc1I` [1b, 5-(5-Iodo-2-isopropyl-4-methoxy-phenoxy)-pyrimidine-2,4-diamine, reference compound], for which the IC50 is 9.77 nM at rat P2X3 receptor (read-out: pIC50 for the P2X3 receptor (converted)) and 41.7 nM on human P2X2/3 receptor (read-out: pIC50 for the P2X2/3 receptor (converted)). `COc1cc(C(C)C)c(Oc2cnc(NC(CO)CO)nc2N)cc1S(N)(=O)=O` [2a, 5-[4-Amino-2-(2-hydroxy-1-hydroxymethyl-ethylamino)-pyrimidin-5-yloxy]-4-isopropyl-2-methoxy-benzenesulfonamide] gave a melting point of 180 to 180.9 °C.

Regarding `C#Cc1cc(Oc2cnc(N)nc2N)c(C(C)C)cc1O` [4-(2,4-Diamino-pyrimidin-5-yloxy)-2-ethynyl-5-isopropyl-phenol], at rat P2X3 receptor, the “pIC50 for the P2X3 receptor” value is recorded as “approximately 8.24”. Also, the “pIC50 for the P2X2/3 receptor” value on human P2X2/3 receptor was “approximately 7.99”.

Turning to `C#Cc1cc(Oc2cnc(NC(CO)CO)nc2N)c(C(C)C)cc1OC` [4a, 2-[4-Amino-5-(5-ethynyl-2-isopropyl-4-methoxy-phenoxy)-pyrimidin-2-ylamino]-propane-1,3-diol], the melting point was 135.5 to 139.1 °C.
